{"source": "patent US20230031009A1", "about": "“TREATMENT FOR CHEMOBRAIN” (YALE UNIVERSITY, priority 2020, published 2023)", "assay_type_in_all_cases": "in vivo, mouse", "key": {"female C57BL/6 mice [1]": {"tested_on": "female C57BL/6 mice", "experiment": "Open-field exploration (OFE): locomotor activity and anxiety (thigmotaxis)", "experimental": "Seven-week-old female C57BL/6 mice were purchased from Charles River (Wilmington, Mass., USA) and allowed to habituate to the facility for 7 days, followed by 3 days of handling before the start of the experiment. Mice were randomly assigned into groups, with all groups represented in each cage. […]\nBehavioral experiments were adapted from a published protocol (35). Data were analyzed blinded to the experimental conditions. […]\nFor the OFE task, each mouse was allowed to explore the arena for 10 min. The camera footage was then analyzed using ToxTrac, a published program for the total distance moved and time spent in the peripheral versus the central areas (36). For the DOR task, pairs of 50-mL tubes filled with corn cob bedding were taped cap-down to pre-determined positions in the arena. […] The camera footage was then analyzed for bouts of interactions with the tubes. […] Casual touching of the tubes in passing, or leaning onto the tubes to look around were not counted. The preference index for the displaced object was calculated as 100*(time spent with displaced object)/(total time spent with both displaced and familiar objects). The preference index for the familiar object was similarly calculated. […]"}, "[2]": {"tested_on": "granule cells in the dentate gyrus of the hippocampus", "experiment": "Golgi-Cox staining and Sholl analysis of hippocampal neurons", "conditions": "30 DPI", "experimental": "(§1) Golgi-Cox staining solutions were prepared in advance, according to a published protocol (37). For tissue collection, each mouse was first anesthetized for ˜30 s with […] isoflurane, and then quickly decapitated with scissors. The skull was opened, and the brain was extracted and washed briefly in ice-cold 1× phosphate-buffered saline solution (PBS, AmericanBio). A razor blade was then used to dissect the brain into two hemispheres along the medial longitudinal fissure. One hemisphere was immediately dropped into a 25-mL scintillation vial containing 10 mL of impregnation stock solution. The other hemisphere was rapidly dissected into the cerebellum, hippocampus, frontal cortex, and midbrain, snap-frozen in liquid nitrogen, and then subsequently stored at −80° C. until further use.\nGolgi-Cox staining was performed according to a published protocol (37). Briefly, the samples were impregnated with a potassium dichromate and mercuric chloride solution at room temperature for 7 days, followed by immersion in a cryoprotection solution for 4 days, and then sectioned into […] frontal slices with a vibratome. The Golgi Atlas of the Postnatal Mouse Brain was used as the reference to identify the section position of the slices (38). […] Spine density was quantified as the number of protrusions on dendritic branches per μm dendrite length"}, "pMARCKS (S152/156)": {"tested_on": "pMARCKS (S152/156)", "experiment": "Western blot of brain tissue for pMARCKS", "conditions": "cortex, 24 h after paclitaxel injection", "experimental": "as §1\n(§2) Frozen tissues were thawed in RIPA buffer containing protease inhibitor, phenylmethylsulfonyl fluoride (PMSF), and sodium orthovanadate (Santa Cruz), homogenized with a polytron, and then spun down twice at 13000 rpm, 4° C. to remove cell debris. Protein concentration was quantified using Pierce BCA protein assay kit (ThermoFisher Scientific) according to the manufacturer's instruction. Western blots were performed using the NuPAGE system (ThermoFisher Scientific) and PVDF membrane with the Biorad wet transfer system (Bio-Rad Laboratories). Approximately 20 μg total protein was loaded into each lane. […]"}, "[3]": {"tested_on": "layers 2/3 cortical pyramidal neurons", "experiment": "Golgi-Cox staining and Sholl analysis of cortical neurons", "experimental": "as §1\nGolgi-Cox staining was performed according to a published protocol (37). Briefly, the samples were impregnated with a potassium dichromate and mercuric chloride solution at room temperature for 7 days, followed by immersion in a cryoprotection solution for 4 days, and then sectioned into […] frontal slices with a vibratome. The Golgi Atlas of the Postnatal Mouse Brain was used as the reference to identify the section position of the slices (38). Slices corresponding to frontal sections 10 and 11 in the atlas were selected for imaging the hippocampus and the parietal cortex. Slices corresponding to frontal sections 4 and 5 were selected for imaging the prefrontal cortex. The selected slices were mounted on 0.3% gelatin-coated slides, developed and dehydrated through a series of increasing alcohol concentrations, then with xylene, and finally mounted in Eukitt solution (Sigma Aldrich) for imaging. Z-stack images of different regions, including the dentate gyrus and the frontal cortex, were collected using a Zeiss LSM 710 Duo microscope with 20× and 60× objectives. […] Spines were imaged from basal dendritic branches at least […] away, and apical dendritic branches at least […] away from the cell soma. Scholl analysis, total dendritic length, number of branch points, and spine density were performed with ImageJ using the Simple Neurite Tracer plugin (39). Spine density was quantified as the number of protrusions on dendritic branches per μm dendrite length"}, "[4]": {"tested_on": "InsP3R1, NCS1, phospholipase C (PLC-β1)", "experiment": "Western blot of brain tissue for other InsP3R pathway proteins", "conditions": "30 DPI, paclitaxel", "experimental": "as §1, §2"}, "PKCα": {"tested_on": "PKCα", "experiment": "Western blot of brain tissue for PKCα", "experimental": "as §1\nFrozen tissues were thawed in RIPA buffer containing protease inhibitor, phenylmethylsulfonyl fluoride (PMSF), and sodium orthovanadate (Santa Cruz), homogenized with a polytron, and then spun down twice at 13000 rpm, 4° C. to remove cell debris. Protein concentration was quantified using Pierce BCA protein assay kit (ThermoFisher Scientific) according to the manufacturer's instruction. Western blots were performed using the NuPAGE system (ThermoFisher Scientific) and PVDF membrane with the Biorad wet transfer system (Bio-Rad Laboratories). Approximately 20 μg total protein was loaded into each lane. Information about the antibodies used is included in Supp."}, "[5]": {"experiment": "Body weight during and after paclitaxel injections", "experimental": "(§3) Seven-week-old female C57BL/6 mice were purchased from Charles River (Wilmington, Mass., USA) and allowed to habituate to the facility for 7 days, followed by 3 days of handling before the start of the experiment. Mice were randomly assigned into groups, with all groups represented in each cage. Depending on the treatment group, lithium chloride (Sigma-Aldrich, 12.8 mg/kg in 0.9% saline), chelerythrine chloride (Cayman Chemical, 2 mg/kg in 0.4% DMSO in saline), or the appropriate vehicle was administered intraperitoneally 1 h before injection of vehicle (20% 50:50 Cremophor EL: ethanol, 80% saline) or paclitaxel (Cayman Chemical, 20 mg/kg in 20% 50:50 Cremophor EL: ethanol, 80% saline) to induce cognitive impairment. Each mouse received a total of 4 pairs of injections over 8 days. During and after injections, mice were weighed daily and checked for general health and any sign of pain or distress."}, "female C57BL/6 mice [6]": {"tested_on": "female C57BL/6 mice", "experiment": "Displaced object recognition (DOR) task in paclitaxel-induced model of cognitive impairment", "conditions": "for preference for the displaced object (DOR task): saline and paclitaxel 4×20 mg/kg, 20 mg/kg", "experimental": "as §3\nBehavioral experiments were adapted from a published protocol (35). Data were analyzed blinded to the experimental conditions. Open-field exploration (OFE) and displaced object recognition (DOR) tasks were carried out over two consecutive days (FIG. 4.1). The experimental arena was a 35×70×35 cm opaque, white Plexiglas chamber. The arena was covered with ˜1 cm of standard corn cob bedding. […]\nFor the OFE task, each mouse was allowed to explore the arena for 10 min. The camera footage was then analyzed using ToxTrac, a published program for the total distance moved and time spent in the peripheral versus the central areas (36). For the DOR task, pairs of 50-mL tubes filled with corn cob bedding were taped cap-down to pre-determined positions in the arena. […] The camera footage was then analyzed for bouts of interactions with the tubes. […] Casual touching of the tubes in passing, or leaning onto the tubes to look around were not counted. The preference index for the displaced object was calculated as 100*(time spent with displaced object)/(total time spent with both displaced and familiar objects). The preference index for the familiar object was similarly calculated."}, "[7]": {"conditions": "medial prefrontal cortex, comparison among 4 groups"}, "[8]": {"conditions": "saline/paclitaxel vs the other three groups"}}, "note": "“Also recorded” adds a separate entry of the source.", "data": [{"smiles": "COc1ccc2c(c[n+](C)c3c4cc5c(cc4ccc23)OCO5)c1OC", "note": "[chelerythrine, chelerythrine chloride]", "values": [{"measurement": "locomotor activity and anxiety (total distance moved, thigmotaxis)", "setting": "female C57BL/6 mice [1]; chelerythrine groups vs other groups, 4 DPI and 22 DPI", "value": "no differences"}]}, {"smiles": "CC(=O)O[C@H]1C(=O)[C@@]2(C)[C@H]([C@H](OC(=O)c3ccccc3)[C@]3(O)C[C@H](OC(=O)[C@H](O)[C@@H](NC(=O)c4ccccc4)c4ccccc4)C(C)=C1C3(C)C)[C@]1(OC(C)=O)CO[C@@H]1C[C@@H]2O", "note": "[paclitaxel]", "values": [{"measurement": "locomotor activity and anxiety (total distance, thigmotaxis)", "setting": "female C57BL/6 mice [1]; mouse, in vivo, 20 mg/kg", "value": "neither impaired locomotor activity nor caused increased anxiety"}, {"measurement": "total dendritic length", "setting": "[2]; saline and paclitaxel vs other groups", "value": "significant reduction"}, {"measurement": "dendritic complexity (Sholl analysis)", "setting": "[2]; saline and paclitaxel vs saline/vehicle, particularly 20-90 μm from the soma", "value": "reduced dendritic arborization; also recorded: substantial reduction in dendritic complexity"}, {"measurement": "pMARCKS (S152/156) level", "setting": "pMARCKS (S152/156)", "value": "trend towards increased pMARCKS"}, {"measurement": "total dendritic length", "setting": "[3]; frontal cortex, saline and paclitaxel vs other groups, 30 DPI", "value": "significant reduction"}, {"measurement": "dendritic complexity (Sholl analysis)", "setting": "[3]; frontal cortex, saline and paclitaxel, 30 DPI", "value": "significant reduction in dendritic complexity"}, {"measurement": "basal dendrites: complexity (Sholl analysis)", "setting": "[3]; [7]", "value": "no significant differences; also recorded: largely spared; also recorded: not observed in basal dendrites"}, {"measurement": "basal dendritic length", "setting": "[3]; [7]", "value": "no significant differences"}, {"measurement": "basal spine density", "setting": "[3]; [7]", "value": "no significant differences"}, {"measurement": "apical dendrites: dendritic arborization (Sholl analysis)", "setting": "[3]; saline/paclitaxel vs saline/vehicle, particularly 110-230 μm", "value": "reduced dendritic arborization; also recorded: primarily due to differences in apical dendrites"}, {"measurement": "apical dendritic length", "setting": "[3]; [8]", "value": "significant reduction"}, {"measurement": "apical spine density", "setting": "[3]; [8]", "value": "significant reduction"}, {"measurement": "levels of other InsP3R pathway proteins (InsP3R1, NCS1, PLC-β1)", "setting": "[4]", "value": "No changes"}, {"measurement": "PKCα protein level", "setting": "PKCα; cortex, 30 DPI (chronic), 4×20 mg/kg paclitaxel", "value": "upregulation"}, {"measurement": "PKCα protein level", "setting": "PKCα; cortex, 24 h after a single 20 mg/kg paclitaxel injection (acute)", "value": "upregulation"}, {"measurement": "PKCα protein level", "setting": "PKCα; hippocampus, 24 h after a single 20 mg/kg paclitaxel injection (acute)", "value": "upregulation"}, {"measurement": "body weight loss", "setting": "[5]; after 2 paclitaxel injections, normalized to first day of injection (FIG. S1)", "value": "5-10%"}, {"measurement": "body weight loss", "setting": "[5]; during injections, normalized to first day of injection (FIG. S3)", "value": "approximately 5%"}, {"measurement": "weight loss, comparison among groups", "setting": "[5]; over the injection duration", "value": "No significant differences; also recorded: No significant weight loss"}, {"measurement": "DOR task performance", "setting": "female C57BL/6 mice [6]; 4×20 mg/kg paclitaxel, after optimization, time not stated", "value": "sufficient to impair DOR task performance without additional side effects"}, {"measurement": "preference for the displaced object (DOR task)", "setting": "female C57BL/6 mice [6]; 5 DPI", "value": "no discrimination between the two objects; also recorded: did not discriminate between the objects; also recorded: impaired short-term spatial memory acquisition; also recorded: no preference for either object"}, {"measurement": "preference for the displaced object (DOR task)", "setting": "female C57BL/6 mice [6]; 23 DPI", "value": "did not discriminate between the objects; also recorded: impaired short-term spatial memory acquisition; also recorded: persisted up to 23 DPI"}]}]}
